These results are taken from patent publication US20100292175A1, “USE OF HYDROXYFLAVAN DERIVATIVES FOR TASTE MODIFICATION” (Leibniz-Institut fur Pflanzenbiochemie, priority 2009, published 2010).

What all share (format): in vivo
The nature of assay [1]: Enhancement of the sweet sensation of a sugar solution, Comparative Test 1, panel of experts. The conditions noted are these: for Sweet sensation (1-10) Sample (sucrose + substance): grading 1 [not sweet] to 10 [extremely sweet]; for synergistic enhancement of the sweet taste of a sweet-tasting substance: according to our own experiments. The source says: To quantify the enhancement of the sweet sensation, the sweetness of a 5% sucrose solution was compared by a panel of experts in each case with a sample which contained 5% of sucrose as well as 50 ppm or 100 ppm of a compound of formula (I) to be used according to the invention (grading: 1 [not sweet] to 10 [extremely sweet]).
For the evaluation, i.e. the calculation of the enhancement (in %) of the sweet sensation, the mean values of the assessments by the panel of experts of the sucrose solution and the sample, to be compared, containing sucrose and a compound of formula (I) were used in each case.

A short description of assay [2]: Bitter reduction of a bitter substance solution (caffeine), panel of experts. The conditions noted are these: for Bitter sensation (1-10) Sample (caffeine + substance): grading 1 [not bitter] to 10 [extremely bitter]. The source says:
To quantify the reduction (i.e. the masking or reduction) of the bitter sensation in a sample, the bitterness of a solution containing 500 ppm of caffeine was compared by a panel of experts in each case with a sample which contained 500 ppm of caffeine and additionally 50 ppm or 100 ppm of a substance to be assessed (in respect of the bitter-reduction ability) (grading: 1 [not bitter] to 10 [extremely bitter]).
For the evaluation, i.e. the calculation of the reduction (in %) of the bitter sensation, the mean values of the assessments by the panel of experts of the caffeine solution and the sample, to be compared, containing caffeine and a substance to be assessed were used in each case. In this respect, 2,4-dihydroxybenzoic acid (2,4-DHB) was used as the comparison (reference) according to U.S. Pat. No. 5,643,941.

A short description of assay [3]: Comparative Test 2: sucrose equivalence in a 5% sucrose solution, panel of experts. The conditions noted are these: for Sucrose equivalence in a 5% sucrose solution, Calculation (5 + x) %: purely additive calculation; for synergy or synergistic additional effect: determined vs calculated sucrose equivalence. As for the experimental part: (§1) The panelists were asked to test each solution of compound 2 in water against the sucrose series and to grade them according to their degree of sweetness (sucrose equivalent). It was possible to determine the inherent sweetness of compound 2 for the above-mentioned concentrations from the results provided by the panelists. In addition to the sucrose equivalence in water (i.e. without sucrose), the sucrose equivalence in a 5% sucrose solution was also determined.
It was possible to establish a clear synergistic sweetness enhancement even at a low concentration, not sweet per se, of approximately 25 ppm of compound 2 (from Example 1). From a purely calculational point of view, it was to be expected that a 5% sucrose solution (i.e. a sucrose solution which corresponds in sensory manner by definition to 5% sucrose equivalents) which contains 25 ppm or 50 ppm of compound 2 (from Example 1) produced a sweetness of approximately 5.84 or 6.45 sucrose equivalents by a purely additive effect of the inherent sweetness of compound 2 (see the determined sucrose equivalence in water). However, the sensory assessment of such a 5% sucrose solution with 25 ppm or 50 ppm of compound 2 (from Example 1) by the panelists produced an averaged sucrose equivalence of 6.8% or 8.2%. Considering the values to be expected from a purely calculational point of view, this corresponds to a synergy or a synergistic additional effect of approximately 17% or 27%.

A short description of assay [4]: Comparative Test 2: inherent sweetness (sucrose equivalence) in water, panel of experts. How it is done:
The inherent sweetness of compound 2 from Example 1, which was dissolved in water in a pure form in different concentrations (0.0025 or 0.0050% by weight in water) was determined by a panel of experts (panelists) using a series of comparisons of different sucrose concentrations in water (0; 0.25; 0.5; 0.75; 1; 1.5; 2; 3; 4 and 5% by weight sucrose in water).
as §1

The mark [5] stands for this setting: 50 ppm substance + 500 ppm caffeine vs 500 ppm caffeine solution.
The mark [6] stands for this setting: 50 ppm substance + 500 ppm caffeine.
[7] abbreviates: 50 ppm substance + 5% sucrose vs 5% sucrose solution.

As to `Oc1ccc(C2CCc3ccc(O)cc3O2)cc1` (stereo not shown) [compound 1, 4′,7-dihydroxyflavan], in assay [1] (100 ppm substance + 5% sucrose vs 5% sucrose solution), the “Enhancement of the sweet sensation” value amounted to 21%. For the same compound, the “Sweet sensation (1-10) Sample (sucrose + substance)” value (from here on “Sweet sensation (1-10) Sample”) in assay [1] (100 ppm substance + 5% sucrose) came out at 6.2 ± 1.5. For the same compound, the “synergistic enhancement of the sweet taste of a sweet-tasting substance” value in assay [1] is on record as “particularly strong synergistic enhancement”.
In the case of `COc1cc(C2CCc3c(O)cc(O)cc3O2)ccc1O` (stereo not shown) [compound 16, 4′,5,7-trihydroxy-3′-methoxyflavan], the “Reduction of the bitter sensation” value in assay [2] (setting [5]) is reported as 5%. Also, in assay [2] (setting [6]), the “Bitter sensation (1-10) Sample (caffeine + substance)” value (shortened to “Bitter sensation (1-10) Sample”) is 4.1 ± 2.0.
`Oc1ccc(C2CCc3c(O)cc(O)cc3O2)cc1` (stereo not shown) [compound 14, 4′,5,7-trihydroxyflavan]: the “Reduction of the bitter sensation” value in assay [2] (setting [5]) is given as 26%. In addition, in assay [2] (setting [6]), the “Bitter sensation (1-10) Sample” value was found to be 3.8 ± 1.9.
With `COc1ccc([C@@H]2CCc3ccc(O)cc3O2)cc1O` [compound S-2, (2S)-3′,7-dihydroxy-4″-methoxyflavan], the “Enhancement of the sweet sensation” value in assay [1] (setting [7]) turned out to be 36%. In assay [1] (50 ppm substance + 5% sucrose), the “Sweet sensation (1-10) Sample” value turned out to be 7.8 ± 1.7. For the same compound, in assay [2] (setting [5]), the “Reduction of the bitter sensation” value is recorded as 16%. Also, the “Bitter sensation (1-10) Sample” value in assay [2] (setting [6]) worked out at 3.9 ± 1.5.
As for `COc1ccc(C2CCc3ccc(O)cc3O2)cc1O` (racemic) [compound 2, 3′,7-dihydroxy-4′-methoxyflavan], the results for the “Sucrose equivalence in a 5% sucrose solution, Determination” value in assay [3] (0.0025 % by weight (25 ppm) in 5% sucrose solution) and in assay [3] (0.0050 % by weight (50 ppm) in 5% sucrose solution) were 6.8% and 8.2%, respectively. Besides, the “Sucrose equivalence in a 5% sucrose solution, Calculation (5 + x) %” value in assay [3] (0.0025 % by weight) is reported as 5.84%; in assay [3] (0.0050 % by weight), 6.45%. Further, the “sweetness to be expected by a purely additive effect of the inherent sweetness” value in assay [3] (25 ppm in 5% sucrose solution) was “approximately 5.84 sucrose equivalents”; in assay [3] (50 ppm in 5% sucrose solution), around 6.45 sucrose equivalents. Also, the “synergy or synergistic additional effect” value was “approximately 17%” in assay [3] (25 ppm in 5% sucrose solution) and around 27% in assay [3] (50 ppm in 5% sucrose solution). Moreover, the “Enhancement of the sweet sensation” value in assay [1] (setting [7]) amounted to 57%. Also, the “Sweet sensation (1-10) Sample” value in assay [1] (50 ppm substance + 5% sucrose) was found to be 8.1 ± 1.3. The “synergistic enhancement of the sweet taste of a sweet-tasting substance” value in assay [1] is “particularly strong synergistic enhancement”. The figures for the “Determination of the sucrose equivalence in water (without sucrose)” value in assay [4] (0.0025 % by weight in water) and in assay [4] (0.0050 % by weight in water) were 0.84% and 1.45%, respectively. In assay [2] (setting [5]), the “Reduction of the bitter sensation” value stood at 27%. For the same compound, the “Bitter sensation (1-10) Sample” value in assay [2] (setting [6]) is listed as 3.9 ± 1.9.
For the compound `COc1ccc(C2CCc3c(O)cc(O)cc3O2)cc1O` (stereo not shown) [compound 15, 3′,5,7-trihydroxy-4′-methoxyflavan], the “Enhancement of the sweet sensation” value in assay [1] (setting [7]) is on record as 21%. In addition, the “Sweet sensation (1-10) Sample” value in assay [1] (50 ppm substance + 5% sucrose) is recorded as 5.8 ± 1.6. In assay [2] (setting [5]), the “Reduction of the bitter sensation” value came to 15%. The “Bitter sensation (1-10) Sample” value in assay [2] (setting [6]) is 3.8 ± 1.5.
In the case of `COc1cc(C2CCc3ccc(O)cc3O2)ccc1O` (stereo not shown) [compound 3, 4′,7-dihydroxy-3″-methoxyflavan], the “Reduction of the bitter sensation” value in assay [2] (setting [5]) is reported as 15%. Besides, in assay [2] (setting [6]), the “Bitter sensation (1-10) Sample” value came out at 4.1 ± 1.4.
`O=C(O)c1ccc(O)cc1O` [2,4-DHB, 2,4-dihydroxybenzoic acid, reference compound]: the “Reduction of the bitter sensation” value in assay [2] (100 ppm substance + 500 ppm caffeine vs 500 ppm caffeine solution) was determined as 3%. In assay [2] (100 ppm substance + 500 ppm caffeine), the “Bitter sensation (1-10) Sample” value was 5.0 ± 1.0.
